Laboratory results taken from publication PMC6591251, “Discovery of potent necroptosis inhibitors targeting RIPK1 kinase activity for the treatment of inflammatory disorder and cancer metastasis” (Cell Death & Disease, 2019).

Columns and labels:
Test in all cases: RBC kinase panel
Assay type in all cases: biochemical
Conditions in all cases: ATP 10 μM, Data1, Data2
Aurora B = target: T1, Aurora B (Homo sapiens, UniProt Q96GD4)
T1 construct: purchased Reaction Biology Corporation
Method: (§1) PK68 was tested at 1 μM in duplicate against a panel of 369 human kinases at Reaction Biology Corporation. Results are viewed in the human kinome phylogenetic tree.
(§2) ^a Compound PK68 was tested at 1 μM in duplicate against 369 kinases using the RBC kinase panel service of Reaction Biology Corporation. All the ATP concentrations used were 10 μM. […] Full protocol details are available at http://www.reactionbiology.com.

HIPK1 = target: T2, HIPK1 (Homo sapiens, UniProt Q86Z02)
T2 construct: purchased Reaction Biology Corporation
Method: as §1, §2

RIPK3 = target: T3, RIPK3 (Homo sapiens, UniProt Q9Y572)
T3 construct: purchased Reaction Biology Corporation
Method: as §1, §2

CDC7/DBF4 = target: T4, CDC7/DBF4 (Homo sapiens, UniProt O00311)
T4 construct: purchased Reaction Biology Corporation
Method: as §1, §2

TYK2 = target: T5, TYK2 (Homo sapiens, UniProt P29597)
T5 construct: purchased Reaction Biology Corporation
Method: as §1, §2

DLK/MAP3K12 = target: T6, DLK/MAP3K12 (Homo sapiens, UniProt Q12852)
T6 construct: purchased Reaction Biology Corporation
Method: as §1, §2

MST1/STK4 = target: T7, MST1/STK4 (Homo sapiens, UniProt Q13043)
T7 construct: purchased Reaction Biology Corporation
Method: as §1, §2

EPHA6 = target: T8, EPHA6 (Homo sapiens, UniProt Q9UF33)
T8 construct: purchased Reaction Biology Corporation
Method: as §1, §2

TGFBR2 = target: T9, TGFBR2 (Homo sapiens, UniProt P37173)
T9 construct: purchased Reaction Biology Corporation
Method: as §1, §2

DCAMKL2 = target: T10, DCAMKL2 (Homo sapiens, UniProt Q8N568)
T10 construct: purchased Reaction Biology Corporation
Method: as §1, §2

CDK5/p35 = target: T11, CDK5/p35 (Homo sapiens, UniProt Q00535)
T11 construct: purchased Reaction Biology Corporation
Method: as §1, §2

TSSK3/STK22C = target: T12, TSSK3/STK22C (Homo sapiens, UniProt Q96PN8)
T12 construct: purchased Reaction Biology Corporation
Method: as §1, §2

GRK3 = target: T13, GRK3 (Homo sapiens, UniProt P35626)
T13 construct: purchased Reaction Biology Corporation
Method: as §1, §2

PKCtheta = target: T14, PKCtheta (Homo sapiens, UniProt Q04759)
T14 construct: purchased Reaction Biology Corporation
Method: as §1, §2

MKK7 = target: T15, MKK7 (Homo sapiens, UniProt O14733)
T15 construct: purchased Reaction Biology Corporation
Method: as §1, §2

FRK/PTK5 = target: T16, FRK/PTK5 (Homo sapiens, UniProt P42685)
T16 construct: purchased Reaction Biology Corporation
Method: as §1, §2

ARAF = target: T17, ARAF (Homo sapiens, UniProt P10398)
T17 construct: purchased Reaction Biology Corporation
Method: as §1, §2

PLK1 = target: T18, PLK1 (Homo sapiens, UniProt P53350)
T18 construct: purchased Reaction Biology Corporation
Method: as §1, §2

CAMK4 = target: T19, CAMK4 (Homo sapiens, UniProt Q16566)
T19 construct: purchased Reaction Biology Corporation
Method: as §1, §2

CAMKK1 = target: T20, CAMKK1 (Homo sapiens, UniProt Q8N5S9)
T20 construct: purchased Reaction Biology Corporation
Method: as §1, §2

ACK1 = target: T21, ACK1 (Homo sapiens, UniProt Q07912)
T21 construct: purchased Reaction Biology Corporation
Method: as §1, §2

BRAF = target: T22, BRAF (Homo sapiens, UniProt P15056)
T22 construct: purchased Reaction Biology Corporation
Method: as §1, §2

MARK2/PAR-1Ba = target: T23, MARK2/PAR-1Ba (Homo sapiens, UniProt Q7KZI7)
T23 construct: purchased Reaction Biology Corporation
Method: as §1, §2

PKCmu/PRKD1 = target: T24, PKCmu/PRKD1 (Homo sapiens, UniProt Q15139)
T24 construct: purchased Reaction Biology Corporation
Method: as §1, §2

CDK7/cyclin H = target: T25, CDK7/cyclin H (Homo sapiens, UniProt P50613)
T25 construct: purchased Reaction Biology Corporation
Method: as §1, §2

ERK2/MAPK1 = target: T26, ERK2/MAPK1 (Homo sapiens, UniProt P28482)
T26 construct: purchased Reaction Biology Corporation
Method: as §1, §2

TAOK2/TAO1 = target: T27, TAOK2/TAO1 (Homo sapiens, UniProt Q9UL54)
T27 construct: purchased Reaction Biology Corporation
Method: as §1, §2

EPHA8 = target: T28, EPHA8 (Homo sapiens, UniProt P29322)
T28 construct: purchased Reaction Biology Corporation
Method: as §1, §2

DRAK1/STK17A = target: T29, DRAK1/STK17A (Homo sapiens, UniProt Q9UEE5)
T29 construct: purchased Reaction Biology Corporation
Method: as §1, §2

CDK2/cyclin E = target: T30, CDK2/cyclin E (Homo sapiens, UniProt P24941)
T30 construct: purchased Reaction Biology Corporation
Method: as §1, §2

ULK1 = target: T31, ULK1 (Homo sapiens, UniProt O75385)
T31 construct: purchased Reaction Biology Corporation
Method: as §1, §2

CDK2/cyclin O = target: T32, CDK2/cyclin O (Homo sapiens, UniProt P24941)
T32 construct: purchased Reaction Biology Corporation
Method: as §1, §2

RIPK2 = target: T33, RIPK2 (Homo sapiens, UniProt O43353)
T33 construct: purchased Reaction Biology Corporation
Method: as §1, §2

T16 sequence (P42685 whole entry): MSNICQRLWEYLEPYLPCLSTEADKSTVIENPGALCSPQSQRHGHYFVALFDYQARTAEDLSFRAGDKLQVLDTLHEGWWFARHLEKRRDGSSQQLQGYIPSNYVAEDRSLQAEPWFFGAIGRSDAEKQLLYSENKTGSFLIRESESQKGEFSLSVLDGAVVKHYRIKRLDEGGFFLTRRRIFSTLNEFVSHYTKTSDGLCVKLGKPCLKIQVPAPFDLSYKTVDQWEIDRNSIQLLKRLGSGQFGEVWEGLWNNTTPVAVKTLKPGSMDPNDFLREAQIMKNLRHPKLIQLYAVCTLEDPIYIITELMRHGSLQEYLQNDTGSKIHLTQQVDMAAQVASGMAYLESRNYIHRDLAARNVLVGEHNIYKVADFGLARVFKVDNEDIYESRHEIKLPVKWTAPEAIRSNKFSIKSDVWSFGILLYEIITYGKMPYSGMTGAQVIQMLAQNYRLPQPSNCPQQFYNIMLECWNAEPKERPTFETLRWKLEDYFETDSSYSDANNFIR
T26 sequence (P28482 whole entry): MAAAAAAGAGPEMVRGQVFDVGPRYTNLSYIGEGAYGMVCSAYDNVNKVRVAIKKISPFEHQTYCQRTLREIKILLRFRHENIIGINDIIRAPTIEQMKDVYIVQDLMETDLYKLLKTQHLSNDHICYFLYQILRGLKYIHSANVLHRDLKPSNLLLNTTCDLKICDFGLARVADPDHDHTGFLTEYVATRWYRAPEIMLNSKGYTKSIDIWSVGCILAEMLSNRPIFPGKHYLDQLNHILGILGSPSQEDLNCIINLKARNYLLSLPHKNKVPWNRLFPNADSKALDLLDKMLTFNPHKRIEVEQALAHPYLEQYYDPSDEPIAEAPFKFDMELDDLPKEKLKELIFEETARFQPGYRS
T19 sequence (Q16566 whole entry): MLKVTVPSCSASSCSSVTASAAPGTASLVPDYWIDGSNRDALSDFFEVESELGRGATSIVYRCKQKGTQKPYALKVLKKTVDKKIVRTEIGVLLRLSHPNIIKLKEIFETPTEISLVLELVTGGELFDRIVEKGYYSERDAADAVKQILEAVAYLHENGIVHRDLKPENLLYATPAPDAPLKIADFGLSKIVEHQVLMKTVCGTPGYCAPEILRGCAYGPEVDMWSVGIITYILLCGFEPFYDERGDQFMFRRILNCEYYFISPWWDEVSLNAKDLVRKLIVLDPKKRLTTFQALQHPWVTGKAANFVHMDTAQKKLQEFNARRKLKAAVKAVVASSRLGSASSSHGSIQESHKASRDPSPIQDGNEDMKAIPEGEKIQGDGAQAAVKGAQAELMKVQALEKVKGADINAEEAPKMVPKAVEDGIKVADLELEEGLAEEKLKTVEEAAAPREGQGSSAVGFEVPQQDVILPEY
T25 sequence (P50613 whole entry): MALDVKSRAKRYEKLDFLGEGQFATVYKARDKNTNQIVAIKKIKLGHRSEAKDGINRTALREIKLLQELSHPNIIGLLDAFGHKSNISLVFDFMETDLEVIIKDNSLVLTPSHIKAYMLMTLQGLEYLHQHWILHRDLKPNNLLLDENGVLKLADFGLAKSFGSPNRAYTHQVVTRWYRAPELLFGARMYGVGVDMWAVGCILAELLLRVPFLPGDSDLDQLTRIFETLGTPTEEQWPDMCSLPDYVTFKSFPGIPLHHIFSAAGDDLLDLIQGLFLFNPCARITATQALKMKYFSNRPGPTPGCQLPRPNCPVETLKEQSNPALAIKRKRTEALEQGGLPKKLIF
T25 sequence (P51946 whole entry partner): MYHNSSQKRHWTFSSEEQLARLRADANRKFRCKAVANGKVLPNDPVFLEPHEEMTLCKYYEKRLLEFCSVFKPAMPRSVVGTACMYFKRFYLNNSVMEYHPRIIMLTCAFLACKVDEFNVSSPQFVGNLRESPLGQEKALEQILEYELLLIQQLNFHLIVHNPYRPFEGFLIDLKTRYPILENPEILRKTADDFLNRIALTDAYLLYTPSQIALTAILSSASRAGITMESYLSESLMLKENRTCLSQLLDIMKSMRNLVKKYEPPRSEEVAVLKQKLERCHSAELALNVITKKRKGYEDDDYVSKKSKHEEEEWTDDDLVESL
T25 sequence (P51948 whole entry partner): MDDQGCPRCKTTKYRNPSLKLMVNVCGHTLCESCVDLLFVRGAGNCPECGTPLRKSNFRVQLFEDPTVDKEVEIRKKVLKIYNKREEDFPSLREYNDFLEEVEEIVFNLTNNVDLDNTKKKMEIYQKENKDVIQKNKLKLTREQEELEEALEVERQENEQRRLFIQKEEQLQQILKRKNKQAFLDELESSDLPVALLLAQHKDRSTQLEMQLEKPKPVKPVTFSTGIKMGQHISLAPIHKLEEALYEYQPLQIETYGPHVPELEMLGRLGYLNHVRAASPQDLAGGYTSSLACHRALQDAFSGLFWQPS
T14 sequence (Q04759 whole entry): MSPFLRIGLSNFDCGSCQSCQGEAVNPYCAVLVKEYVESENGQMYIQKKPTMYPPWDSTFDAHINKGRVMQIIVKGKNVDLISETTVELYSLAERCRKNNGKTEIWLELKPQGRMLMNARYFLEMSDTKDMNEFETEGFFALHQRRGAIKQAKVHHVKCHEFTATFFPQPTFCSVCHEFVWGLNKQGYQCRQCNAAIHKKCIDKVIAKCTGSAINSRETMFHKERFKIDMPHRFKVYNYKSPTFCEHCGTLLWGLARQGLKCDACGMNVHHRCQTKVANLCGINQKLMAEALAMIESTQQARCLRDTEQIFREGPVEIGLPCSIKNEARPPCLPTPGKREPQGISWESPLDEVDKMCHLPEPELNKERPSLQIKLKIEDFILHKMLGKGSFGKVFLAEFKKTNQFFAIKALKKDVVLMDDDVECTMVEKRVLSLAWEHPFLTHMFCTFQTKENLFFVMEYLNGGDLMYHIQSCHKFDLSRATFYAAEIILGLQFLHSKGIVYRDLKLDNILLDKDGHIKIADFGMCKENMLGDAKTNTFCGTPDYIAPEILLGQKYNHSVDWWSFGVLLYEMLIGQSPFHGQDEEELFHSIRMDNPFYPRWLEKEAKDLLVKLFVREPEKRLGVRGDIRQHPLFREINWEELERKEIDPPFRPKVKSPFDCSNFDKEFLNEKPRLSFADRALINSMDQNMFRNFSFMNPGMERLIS
T18 sequence (P53350 whole entry): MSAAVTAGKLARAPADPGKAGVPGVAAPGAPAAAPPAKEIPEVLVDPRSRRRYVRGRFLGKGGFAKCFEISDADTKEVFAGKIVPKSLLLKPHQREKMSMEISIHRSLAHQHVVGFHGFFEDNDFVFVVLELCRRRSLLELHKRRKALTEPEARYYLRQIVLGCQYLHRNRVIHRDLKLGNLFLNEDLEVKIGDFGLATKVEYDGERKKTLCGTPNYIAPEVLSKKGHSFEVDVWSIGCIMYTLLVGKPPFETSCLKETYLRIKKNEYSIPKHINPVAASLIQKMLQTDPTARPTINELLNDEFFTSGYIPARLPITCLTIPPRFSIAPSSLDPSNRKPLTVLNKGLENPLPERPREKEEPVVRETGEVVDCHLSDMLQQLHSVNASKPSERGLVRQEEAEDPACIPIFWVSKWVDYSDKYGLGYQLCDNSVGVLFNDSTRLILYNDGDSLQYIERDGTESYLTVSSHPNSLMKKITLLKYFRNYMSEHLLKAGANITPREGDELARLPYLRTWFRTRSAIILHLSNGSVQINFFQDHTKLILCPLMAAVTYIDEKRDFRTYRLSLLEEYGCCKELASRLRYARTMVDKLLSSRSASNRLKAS
T8 sequence (Q9UF33 23-1036): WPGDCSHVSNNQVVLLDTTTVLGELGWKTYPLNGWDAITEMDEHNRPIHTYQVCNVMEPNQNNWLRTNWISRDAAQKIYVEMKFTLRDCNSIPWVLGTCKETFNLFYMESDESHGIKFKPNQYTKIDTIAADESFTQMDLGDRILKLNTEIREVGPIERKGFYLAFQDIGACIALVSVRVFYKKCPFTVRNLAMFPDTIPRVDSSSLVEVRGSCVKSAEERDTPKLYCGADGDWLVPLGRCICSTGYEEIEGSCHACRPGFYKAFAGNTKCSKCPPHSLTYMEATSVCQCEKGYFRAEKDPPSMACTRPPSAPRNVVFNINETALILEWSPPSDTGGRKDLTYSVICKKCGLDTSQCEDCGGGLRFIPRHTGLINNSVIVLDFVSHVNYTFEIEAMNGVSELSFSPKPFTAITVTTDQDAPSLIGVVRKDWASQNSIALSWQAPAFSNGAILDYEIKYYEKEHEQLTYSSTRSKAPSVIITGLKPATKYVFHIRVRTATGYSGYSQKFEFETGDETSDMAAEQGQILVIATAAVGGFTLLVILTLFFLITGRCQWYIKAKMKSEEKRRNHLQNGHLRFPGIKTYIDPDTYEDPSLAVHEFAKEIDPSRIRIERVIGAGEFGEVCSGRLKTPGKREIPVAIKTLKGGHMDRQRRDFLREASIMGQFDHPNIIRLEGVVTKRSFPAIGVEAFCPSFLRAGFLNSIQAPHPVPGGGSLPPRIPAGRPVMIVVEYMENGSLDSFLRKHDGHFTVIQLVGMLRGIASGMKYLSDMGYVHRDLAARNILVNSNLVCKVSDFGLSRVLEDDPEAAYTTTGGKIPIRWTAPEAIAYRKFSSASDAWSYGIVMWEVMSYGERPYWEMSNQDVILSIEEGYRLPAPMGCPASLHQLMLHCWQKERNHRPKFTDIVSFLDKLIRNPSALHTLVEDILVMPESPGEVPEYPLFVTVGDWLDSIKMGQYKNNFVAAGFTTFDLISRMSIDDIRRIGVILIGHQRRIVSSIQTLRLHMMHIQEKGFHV
T12 sequence (Q96PN8 whole entry): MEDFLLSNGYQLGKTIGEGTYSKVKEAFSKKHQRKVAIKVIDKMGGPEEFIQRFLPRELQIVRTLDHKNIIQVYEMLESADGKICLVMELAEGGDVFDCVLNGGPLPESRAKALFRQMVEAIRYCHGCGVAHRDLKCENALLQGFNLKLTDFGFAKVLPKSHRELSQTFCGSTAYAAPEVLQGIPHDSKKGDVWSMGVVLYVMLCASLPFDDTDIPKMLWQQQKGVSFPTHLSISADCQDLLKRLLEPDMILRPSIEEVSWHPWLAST

CC(=O)Nc1nc2ccc(-c3cnc(C)c(NC(=O)OC4CCCCC4)c3)cc2s1 [PK68, cyclohexyl (5-(2-acetamidobenzo[d]thiazol-6-yl)-2-methylpyridin-3-yl)carbamate]
Activity% (Aurora B; 1 μM): 83.50%
activity at 1 µM (Aurora B): 83.7%
Activity% (HIPK1; 1 μM): 86.01%
activity at 1 µM (HIPK1): 87.4%
Activity% (RIPK3; 1 μM): 104.99%
activity at 1 µM (RIPK3): 106%
Activity% (CDC7/DBF4; 1 μM): 104.41%
activity at 1 µM (CDC7/DBF4): 110%
Activity% (TYK2; 1 μM): 100.62%
activity at 1 µM (TYK2): 106%
Activity% (DLK/MAP3K12; 1 μM): 94.64%
activity at 1 µM (DLK/MAP3K12): 103%
Activity% (MST1/STK4; 1 μM): 100.43%
activity at 1 µM (MST1/STK4): 100%
Activity% (EPHA6; 1 μM): 97.58%
activity at 1 µM (EPHA6): 98.1%
Activity% (TGFBR2; 1 μM): 114.72%
activity at 1 µM (TGFBR2): 115%
Activity% (DCAMKL2; 1 μM): 99.58%
activity at 1 µM (DCAMKL2): 100%
Activity% (CDK5/p35; 1 μM): 100.63%
activity at 1 µM (CDK5/p35): 102%
Activity% (TSSK3/STK22C; 1 μM): 103.77%
activity at 1 µM (TSSK3/STK22C): 104%
Activity% (GRK3; 1 μM): 102.09%
activity at 1 µM (GRK3): 103%
Activity% (PKCtheta; 1 μM): 97.50%
activity at 1 µM (PKCtheta): 101%
Activity% (MKK7; 1 μM): 93.03%
activity at 1 µM (MKK7): 98%
Activity% (FRK/PTK5; 1 μM): 97.78%
activity at 1 µM (FRK/PTK5): 101%
Activity% (ARAF; 1 μM): 60.01%
activity at 1 µM (ARAF): 60.5%
Activity% (PLK1; 1 μM): 93.68%
activity at 1 µM (PLK1): 94.6%
Activity% (CAMK4; 1 μM): 84.49%
activity at 1 µM (CAMK4): 84.8%
Activity% (CAMKK1; 1 μM): 111.65%
activity at 1 µM (CAMKK1): 113%
Activity% (ACK1; 1 μM): 84.41%
activity at 1 µM (ACK1): 85.5%
Activity% (BRAF; 1 μM): 83.61%
activity at 1 µM (BRAF): 84.8%
Activity% (MARK2/PAR-1Ba; 1 μM): 107.76%
activity at 1 µM (MARK2/PAR-1Ba): 110%
Activity% (PKCmu/PRKD1; 1 μM): 95.71%
activity at 1 µM (PKCmu/PRKD1): 96.5%
Activity% (CDK7/cyclin H; 1 μM): 87.73%
activity at 1 µM (CDK7/cyclin H): 89.2%
Activity% (ERK2/MAPK1; 1 μM): 92.60%
activity at 1 µM (ERK2/MAPK1): 96.9%
Activity% (TAOK2/TAO1; 1 μM): 81.88%
activity at 1 µM (TAOK2/TAO1): 82.6%
Activity% (EPHA8; 1 μM): 99.05%
activity at 1 µM (EPHA8): 100%
Activity% (DRAK1/STK17A; 1 μM): 90.72%
activity at 1 µM (DRAK1/STK17A): 91.3%
Activity% (CDK2/cyclin E; 1 μM): 91.99%
activity at 1 µM (CDK2/cyclin E): 93.5%
Activity% (ULK1; 1 μM): 100.13%
activity at 1 µM (ULK1): 105%
Activity% (CDK2/cyclin O; 1 μM): 98.77%
activity at 1 µM (CDK2/cyclin O): 99.8%
Activity% (RIPK2; 1 μM): 85.19%
activity at 1 µM (RIPK2): 91.2%
